# Test results reported in patent US20250361219A1, “SYSTEMS AND METHODS FOR SEPARATION OF CHEMICAL SPECIES, SUCH AS CANNABINOIDS, USING MULTIPLE LIQUID PHASES” (priority 2022, published 2025).
# Where two headings read alike, the source gives them in different places.
# Columns and labels:
# [1] = Batch extraction of rac-propranolol with dibutyl L-(+)-tartrate / boric acid, dichloromethane/water; assay type: physicochemical; conditions: for distribution coefficient: dichloromethane with dibutyl-L-tartrate / water with boric acid
# Description: One mobile phase was used—a 54/46 v/v methanol/water solution containing 110 mM sodium acetate adjusted to a pH of 6 using glacial acetic acid, 215 mM boric acid, and 285 mM dibutyl L-(+)-tartrate. The flow rate was 0.23 mL/min. The column was heated to 25° C. and the detection was monitored at a wavelength of 275 nm. Samples were diluted 20× in 54/46 v/v methanol/water solution containing 110 mM sodium acetate buffered to a pH of 6 with glacial acetic acid and the injection volume was 10 μL.
# Batch extraction experiments were performed as follows. 2 mL of 1 mg/mL rac-Propranolol in water containing 152.1 mM boric acid was mixed with 2 mL of 152.1 mM dibutyl L-(+)-tartrate in dichloromethane. The solution was vigorously shaken for approximately 2 minutes and allowed to fully settle. 20 μL of each phase were diluted with 380 μL of 110 mM sodium acetate in a 54/46 methanol/water solution buffered to a pH of 6 using glacial acetic acid and the solute concentrations were determined by HPLC.
# [2] = 1,2-Dichloroethane/water (literature), 45x molar excess dibutyl-L-tartrate and boric acid; listed as R/S-PRP; cited from earlier work
# [3] = Current platform (10/5/5 DCM/methanol/water ratio)
# Description: Batch extraction experiments were performed as follows. 1 mg of each solute was added to 2 mL of dichloromethane, 1 mL of water, and 1 mL of methanol. The solution was vigorously shaken for around 2 minutes and allowed to fully settle. 100 μL of each phase were diluted with 900 μL of methanol and the solute concentrations were determined by HPLC.
# [4] = Literature (10/6/4 DCM/methanol/water ratio); cited from earlier work
# [5] = Partition coefficients of delta-9- and delta-8-tetrahydrocannabinol in liquid mixtures (Examples 1-9); assay type: physicochemical
# Description: The cannabinoid sample contained both delta-9-tetrahydrocannabinol with delta-8-tetrahydrocannabinol. The liquid mixtures included an organic phase as the first liquid phase and a water soluble phase as the second liquid phase. The organic phase and the water soluble phase were in 1:1 volume ratio for all analyses. Various hydrocarbons were evaluated as the organic phase. These hydrocarbons included hexane, heptane, cyclohexane, pentane, 1-hexene, toluene, benzene, 1-octadecene, and dodecane. Various amide based solvents were evaluated as the water soluble phase. These amide based solvents included formamide (F), dimethyl formamide (DMF), methyl formamide (MF), dibutyl formamide (DBF).
# Example 9. A mixture of formamide (F) and dimethyl formamide (DMF) and dibutyl formamide (DBF) at a volume ratio of 1:3:1 (20% F and 60% DMF and 20% DBF) was used as the water soluble phase. Hexane was used as the organic phase. […] The partition coefficients for each component (e.g., delta-9-tetrahydrocannabinol, delta-8-tetrahydrocannabinol) in the liquid mixture were determined by calculating a ratio of the concentration of the component in the water soluble phase over concentration of the component in the organic phase.
structure (smiles),measurement,setting,value
"CC(C)NC[C@@H](O)COc1cccc2ccccc12 [R-PRP, R-propranolol]",distribution coefficient,[1],0.12
CC(C)NCC(O)COc1cccc2ccccc12 (centres unmarked) [R/S-propranolol],Selectivity between enantiomers,[2],2.54±0.13
same,Selectivity between enantiomers,"[1]; Dichloromethane/water (experiment), 45x molar excess dibutyl-L-tartrate and boric acid",2.58 ± 0.07
CC(C)NCC(O)COc1cccc2ccccc12 (centres unmarked) [S-PRP],distribution coefficient,[1],0.30
"COc1cc(C=O)cc(OC)c1O [Syringaldehyde, syringaldehyde]",αx/pHBA (selectivity),[3],25.5
same,αx/pHBA (selectivity),[4],17.8
CCCCCc1cc(O)c2c(c1)OC(C)(C)[C@@H]1CCC(C)=C[C@@H]21 [delta-9-tetrahydrocannabinol],"Kd9,THC/Kd8,THC",[5]; Example 1: F:DMF (9:16) / Hexane,1.47
same,"Kd9,THC/Kd8,THC",[5]; Example 2: F:DMF (9:16) / Heptane,1.45
same,"Kd9,THC/Kd8,THC",[5]; Example 3: F:DMF (9:16) / Cyclohexane,1.48
same,"Kd9,THC/Kd8,THC",[5]; Example 4: F:DMF (9:16) / Pentane,1.36
same,"Kd9,THC/Kd8,THC",[5]; Example 5: F:DMF (9:16) / 1-Hexene,1.37
same,"Kd9,THC/Kd8,THC",[5]; Example 6: F:DMF (1:1) / Dodecane,1.39
same,"Kd9,THC/Kd8,THC",[5]; Example 7: F:MF (1:1) / Hexane,1.20
same,"Kd9,THC/Kd8,THC",[5]; Example 8: F:MF (2:3) / Hexane,1.23
same,"Kd9,THC/Kd8,THC",[5]; Example 9: F:DMF:DBF (1:3:1) / Hexane,1.39
"O=C(O)c1ccc(O)cc1 [pHBA, para-hydroxybenzoic acid]",αx/pHBA (selectivity),[3],1.00
same,αx/pHBA (selectivity),[4],1.00
